One compound from article PMC11439681, “The identification of potent dual-target monopolar spindle 1 (MPS1) and histone deacetylase 8 (HDAC8) inhibitors through pharmacophore modeling, molecular docking, molecular dynamics simulations, and biological evaluation” (Frontiers in Pharmacology, 2024) can be followed below.

For one series, the target named is T1, MPS1 (Homo sapiens, UniProt P33981).
T1 construct: purchased Abcam
T1 sequence (P33981 1-857): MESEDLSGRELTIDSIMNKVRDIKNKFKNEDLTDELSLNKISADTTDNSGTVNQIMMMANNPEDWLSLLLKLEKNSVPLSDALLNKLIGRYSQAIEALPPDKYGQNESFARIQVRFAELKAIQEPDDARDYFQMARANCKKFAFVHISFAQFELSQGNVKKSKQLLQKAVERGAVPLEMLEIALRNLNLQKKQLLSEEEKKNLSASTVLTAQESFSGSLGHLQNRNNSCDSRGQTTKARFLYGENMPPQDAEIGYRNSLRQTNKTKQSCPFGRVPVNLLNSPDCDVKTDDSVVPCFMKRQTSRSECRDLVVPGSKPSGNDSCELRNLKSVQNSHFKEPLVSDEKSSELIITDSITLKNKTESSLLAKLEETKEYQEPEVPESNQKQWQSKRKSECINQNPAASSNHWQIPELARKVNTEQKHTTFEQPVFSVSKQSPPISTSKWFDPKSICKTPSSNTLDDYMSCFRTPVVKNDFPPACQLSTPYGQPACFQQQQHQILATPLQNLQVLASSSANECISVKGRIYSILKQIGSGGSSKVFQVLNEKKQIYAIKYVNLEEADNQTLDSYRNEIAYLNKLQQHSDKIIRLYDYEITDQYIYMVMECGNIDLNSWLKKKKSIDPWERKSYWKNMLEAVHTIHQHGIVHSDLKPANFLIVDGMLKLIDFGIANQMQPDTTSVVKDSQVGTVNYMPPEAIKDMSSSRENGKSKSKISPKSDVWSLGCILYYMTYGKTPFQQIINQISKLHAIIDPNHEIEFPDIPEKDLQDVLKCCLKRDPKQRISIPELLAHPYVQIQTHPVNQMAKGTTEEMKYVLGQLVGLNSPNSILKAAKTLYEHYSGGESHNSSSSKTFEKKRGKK
The series can be described thus: In vitro MPS1 inhibitory assay. The format is biochemical. Here is the method: The methodology is as previously described ([Naud et al., 2013]). In brief, the experiment was conducted using 384-well black low-volume plates, which were loaded with MPS1 (concentration range of 3–12.5 nM), 5 μM fluorescence-labelled peptide (sequence: 5FAM-[…]-CONH2), 10 μM ATP, 1% (v/v) DMSO or the test compound (concentrations in 1% (v/v) DMSO ranged from 0.25 to 100 μM), and assay buffer. […]. The plate was read on a Caliper EZ reader II (PerkinElmer Life Sciences, Waltham, MA, United States). […]

Another series relates to HepG2 liver cancer cells. The series can be described thus: MTT cytotoxicity assay, HepG2. The format is cell-based. As to conditions: Homo sapiens, 72 h cell treatment. Here is the method: (§1) The cells (5 × 10^4 cells/well) were incubated overnight in 96-well plates. A series of solutions containing varying concentrations of inhibitors were added and incubated at 37°C for a period of 72 h. Subsequently, the culture medium was removed, followed by a subsequent incubation of the cells with a 5 mg/mL MTT stock solution for 4 h. After centrifugation, the precipitate was solubilized in DMSO and gently shaken for 15 min. Finally, the absorbance measurement at 570 nm was completed using a microplate reader. Data analysis was performed using GraphPad Prism 6.0 software.

In another series the test system is Huh-1. The series can be described thus: MTT cytotoxicity assay, Huh-1. It counts as cell-based. The note with it: Homo sapiens, 72 h cell treatment. As to the method:
as §1

The next series relates to MCF10A. Put plainly: MTT cytotoxicity assay, MCF10A normal cells. It counts as cell-based. The note with it: Homo sapiens, MCF-10A, 72 h cell treatment. Here is the method: as §1
The next series has as its system BEAS-2B. Put plainly: MTT cytotoxicity assay, BEAS-2B normal cells. The format is cell-based. The note with it: Homo sapiens, 72 h cell treatment. As to the method: as §1
Series [1] in a line: In vivo pharmacokinetic study. As to conditions: mouse, plasma, ip, BALB/c mice, i.p., 5 mg/kg. As to the method:
MPH-5 was administered intraperitoneally to BALB/c mice at a dose of 5 mg/kg. The blood samples (0.25 mL) were collected at 0.25, 0.5, 1, 2, 4, 8, 16 and 24 h after dosing and centrifuged to obtain the plasma fraction. Plasma samples (50 μL) were transferred into a 96-well plate, followed by the addition of an internal standard solution of methanol/acetonitrile (1:1, v/v) (200 μL). After vortexing for 5 min, the mixture was centrifuged (12,000 rpm for 5 min) to obtain the supernatant (60 μL). A liquid chromatography-tandem mass spectrometry (LC-MS/MS) system was used for the pharmacokinetic study. Data were processed using Phoenix software.

For the compound `Cn1cc(-c2cc3cnc(Nc4ccc(-c5cncn5/C=C/C(=O)NO)cc4Cl)cc3n2C(=O)OC(C)(C)C)cn1` [MPH-5], the IC50 against MPS1 is 4.52 ± 0.21 nM; in the series with HepG2 liver cancer cells, 0.19 µM; with Huh-1 it was 0.32 µM; in the series on MCF10A, more than 10 µM; in the series on BEAS-2B it was more than 10 µM. Also, the “MPS1 IC50 of MPH-5 relative to AZ3146” value at MPS1 (vs AZ3146) is recorded as “about 8 fold”. In addition, in series [1] (read-out: AUC (h·nmol/L), area under the drug-time curve), the AUC amounted to 13800 nmol·h/L. For the same compound, the Cmax in series [1] (read-out: Cmax (nmol/L), maximum plasma concentration) was found to be 2920 nmol/L. For the same compound, the bioavailability in series [1] (read-out: F (%), bioavailability) turned out to be 85%. For the same compound, the half-life in series [1] (read-out: T1/2 (h), elimination half-life (converted)) is 3.46 h.
